In patent US8309558B2, “Compounds for the treatment of hepatitis C” (Bristol-Myers Squibb Company, priority 2008, dated 2012):
Where two headings read alike, the source gives them in different places.

What was measured:
[1] = target: T1, HCV NS5B RdRp genotype 1b (Hepatitis C virus genotype 1b, UniProt Q9WMX2); test: Standard HCV NS5B RdRp enzyme assay; format: biochemical; conditions: HCV NS5B RdRp genotype 1b, read-out: IC50
T1 construct: The protein was expressed with an 18 amino acid C-terminal truncation to enhance the solubility; made in house; host or cells: E. coli BL21(DE3), pET21a vector
Procedure, shortened: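 C-terminally truncated (18 aa) genotype 1b NS5B from E. coli, 28 nM, with 6 nM polyA template, 180 nM biotinylated oligo-dT12 primer and 3H-UTP (0.29 μM total UTP). Hepes pH 7.5 buffer with 2% DMSO; 60 min at 30° C. EDTA stop, SPA read-out; IC50 from seven concentrations by four-parameter fit.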

HCV replicon cells = test: HCV replicon FRET / luciferase assay (96-well plates); format: cell-based; conditions: Hepatitis C virus, HCV replicon, read-out: EC50
Procedure, shortened: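 Replicon cells (with or without Renilla luciferase reporter) incubated with titrated compounds at 37 °C; Alamar blue read for cytotoxicity first. NS3 protease activity read kinetically with 20 μM EDANS/DABCYL FRET peptide in lysis reagent plus 150 mM NaCl (ex 340/em 490), or by Dual-Glo luciferase. EC50 = 50% signal reduction after protease-inhibitor background subtraction.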

[2] = untitled table after Table 1b, values without asterisk

T1 sequence (Q9WMX2 2420-2992): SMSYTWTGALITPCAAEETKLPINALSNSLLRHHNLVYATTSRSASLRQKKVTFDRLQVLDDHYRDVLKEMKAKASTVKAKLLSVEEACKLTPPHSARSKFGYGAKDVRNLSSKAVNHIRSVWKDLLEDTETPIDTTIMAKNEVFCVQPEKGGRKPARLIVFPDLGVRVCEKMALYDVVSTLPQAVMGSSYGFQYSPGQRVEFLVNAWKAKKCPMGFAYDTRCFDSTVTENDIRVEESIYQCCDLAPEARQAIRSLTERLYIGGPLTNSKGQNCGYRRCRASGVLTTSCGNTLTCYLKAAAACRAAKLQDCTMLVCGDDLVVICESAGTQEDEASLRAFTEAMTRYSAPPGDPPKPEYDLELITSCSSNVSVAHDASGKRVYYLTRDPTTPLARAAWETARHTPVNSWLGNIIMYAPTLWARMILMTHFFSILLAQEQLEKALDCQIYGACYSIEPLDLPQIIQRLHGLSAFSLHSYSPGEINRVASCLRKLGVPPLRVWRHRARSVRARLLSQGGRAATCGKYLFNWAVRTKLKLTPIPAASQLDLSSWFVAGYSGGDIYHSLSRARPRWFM

Structure (SMILES)	IC50 ([1]; Table 1b)	EC50 (HCV replicon cells; Table 1b)	IC50 ([1]; Table 1a)	EC50 (HCV replicon cells; Table 1a)	further results
CNC(=O)c1c(-c2ccc(F)cc2)oc2ccc(-c3cccc(C(=O)N4CC[C@H](NC(C)=O)C4)c3)cc12 [drawing 622]	–	–	–	–	IC50 ([1]; untitled table after Table 1b): 7.13 µM; EC50 (HCV replicon cells; [2]): 16.1 µM
CNC(=O)c1c(-c2ccc(F)cc2)oc2ccc(-c3cc(C(=O)NC4(c5ncccn5)CC4)c(C)cc3C)cc12	< 0.25 µM	< 0.25 µM	–	–	–
CNC(=O)c1c(-c2ccc(F)cc2)oc2ccc(-c3cc(C(=O)NCC(C)C)ccc3OCC3CCCNC3)cc12 (stereo not drawn)	< 0.25 µM	< 0.25 µM	–	–	–
CNC(=O)c1c(-c2ccc(F)cc2)oc2ccc(-c3cccc(C(=O)NCCc4cccs4)c3)cc12	–	–	0.25 to 1 µM	0.25 to 1 µM	–
CNC(=O)c1c(-c2ccc(F)cc2)oc2ccc(-c3ccc(Cl)c(C(=O)O)c3)cc12	–	–	1 to 10 µM	> 10 µM	–
CNC(=O)c1c(-c2ccc(F)cc2)oc2ccc(-c3cccc(C(N)=O)c3)cc12	–	–	1 to 10 µM	> 3.7 µM	–
CNC(=O)c1c(-c2ccc(F)cc2)oc2ccc(-c3cc(C(=O)NCC(C)C)ccc3OC3CCC3)cc12	–	–	> 1.39 µM	0.25 to 1 µM	–
CNC(=O)c1c(-c2ccc(F)cc2)oc2ccc(-c3ccc(O)c(C(=O)NCC(C)C)c3)cc12	1 to 10 µM	> 10 µM	–	–	–
CNC(=O)c1c(-c2ccc(F)cc2)oc2ccc(-c3cccc(C(=O)NC4(c5ccc(F)cc5)CC4)c3)cc12	–	–	< 0.25 µM	< 0.25 µM	–
CNC(=O)c1c(-c2ccc(F)cc2)oc2ccc(-c3cccc(C(=O)NC(CO)C(=O)OC)c3)cc12 (stereo not drawn)	–	–	0.25 to 1 µM	1 to 10 µM	–
CNC(=O)c1c(-c2ccc(F)cc2)oc2ccc(-c3cc(OCCC4CCCNC4)cc(C(=O)NCC(C)C)c3)cc12 (stereo not drawn)	< 0.25 µM	< 0.25 µM	–	–	–
CNC(=O)c1c(-c2ccc(F)cc2)oc2ccc(-c3cccc(S(=O)(=O)NCCO)c3)cc12	–	–	1 to 10 µM	> 10 µM	–
CNC(=O)c1c(-c2ccc(F)cc2)oc2ccc(-c3cccc(C(=O)NC(C)(C)C(=O)Nc4nncs4)c3)cc12	< 0.25 µM	< 0.25 µM	–	–	–
CNC(=O)c1c(-c2ccc(F)cc2)oc2ccc(-c3cc(OCC#N)cc(C(=O)NCC(C)C)c3)cc12	< 0.25 µM	< 0.25 µM	–	–	–
CNC(=O)c1c(-c2ccc(F)cc2)oc2ccc(-c3cccc(C(=O)N4CCN(CCOC)CC4)c3)cc12	–	–	> 10 µM	> 10 µM	–
CNC(=O)c1c(-c2ccc(F)cc2)oc2ccc(-c3cc(C(=O)NCC(C)C)ccc3OCc3ccc(C(F)(F)F)cn3)cc12	> 10 µM	> 10 µM	–	–	–
CNC(=O)c1c(-c2ccc(F)cc2)oc2ccc(-c3cccc(S(=O)(=O)NC4CC4)c3)cc12	–	–	> 10 µM	> 10 µM	–
CNC(=O)c1c(-c2ccc(F)cc2)oc2ccc(-c3cc(C(=O)NC4(c5ccccc5)CC4)ccc3OCC(N)=O)cc12	< 0.25 µM	< 0.25 µM	–	–	–
CNC(=O)c1c(-c2ccc(F)cc2)oc2ccc(-c3cccc(C(=O)Nc4ccccc4OC)c3)cc12	–	–	0.25 to 1 µM	< 0.25 µM	–
CNC(=O)c1ccc(-c2ccc3oc(-c4ccc(F)cc4)c(C(=O)NC)c3c2)cc1	–	–	> 10 µM	> 3.7 µM	–
CNC(=O)c1c(-c2ccc(F)cc2)oc2ccc(-c3cccc(C(=O)NCCC#N)c3)cc12	–	–	0.25 to 1 µM	0.25 to 1 µM	–
CNC(=O)c1c(-c2ccc(F)cc2)oc2ccc(-c3cc(C(=O)NCC(C)C)cc(-c4ccccc4)c3)cc12	> 10 µM	> 10 µM	–	–	–
CNC(=O)c1c(-c2ccc(F)cc2)oc2cc(N)c(-c3cc(C(=O)NCC(C)C)ccc3OC)cc12	< 0.25 µM	< 0.25 µM	–	–	–
CNC(=O)c1c(-c2ccc(F)cc2)oc2ccc(-c3ccc(-c4cccc(OC)c4F)c(C(=O)NCC(C)C)c3)cc12	> 10 µM	0.25 to 1 µM	–	–	–
CNC(=O)c1c(-c2ccc(F)cc2)oc2ccc(-c3cc(C(=O)NC4(c5ccccc5)CC4)ccc3OC)cc12 [drawing 604]	–	–	–	–	IC50 ([1]; untitled table after Table 1b): 0.00995 µM; EC50 (HCV replicon cells; [2]): 0.00178 µM
CNC(=O)c1c(-c2ccc(F)cc2)oc2ccc(-c3cccc(C(=O)NC(C)(C)C)c3)cc12	–	–	< 0.25 µM	< 0.25 µM	–

Structure (SMILES)	IC50 ([1]; Table 1b)	EC50 (HCV replicon cells; Table 1b)	IC50 ([1]; Table 1a)	EC50 (HCV replicon cells; Table 1a)	further results
CNC(=O)c1c(-c2ccc(F)cc2)oc2ccc(-c3cc(C(=O)NC4(c5nnc(N)o5)CC4)ccc3C)cc12	< 0.25 µM	< 0.25 µM	–	–	–
CNC(=O)c1c(-c2ccc(F)cc2)oc2ccc(-c3cccc(C(=O)Nc4ccncc4)c3)cc12	–	–	< 0.25 µM	< 0.25 µM	–
CNC(=O)c1c(-c2ccc(F)cc2)oc2ccc(-c3cccc(C(=O)NCc4ccc(C)cc4)c3)cc12	–	–	< 0.25 µM	< 0.25 µM	–
C=C[C@@H]1C[C@]1(NC(=O)c1cccc(-c2ccc3oc(-c4ccc(F)cc4)c(C(=O)NC)c3c2)c1)C(=O)NS(=O)(=O)C1CC1	–	–	0.25 to 1 µM	> 10 µM	–
CNC(=O)c1c(-c2ccc(F)cc2)oc2ccc(-c3cc(C(=O)NC4(c5ccccn5)CC4)ccc3Cl)cc12 [drawing 605]	–	–	–	–	IC50 ([1]; untitled table after Table 1b): 0.01 µM; EC50 (HCV replicon cells; [2]): 0.00183 µM
CCN(CC)C(=O)c1cccc(-c2ccc3oc(-c4ccc(F)cc4)c(C(=O)NC)c3c2)c1	–	–	1 to 10 µM	1 to 10 µM	–
CNC(=O)c1c(-c2ccc(F)cc2)oc2ccc(-c3cc(C(=O)NCC(C)C)ccc3OCCc3ccc(Cl)cc3)cc12	> 10 µM	> 10 µM	–	–	–
CNC(=O)c1c(-c2ccc(F)cc2)oc2ccc(-c3cnc(OC)nc3)cc12	–	–	1 to 10 µM	1 to 10 µM	–
CNC(=O)c1c(-c2ccc(F)cc2)oc2ccc(-c3cc(C(F)(F)F)ccc3OC)cc12	–	–	> 10 µM	> 3.7 µM	–
CNC(=O)c1c(-c2ccc(F)cc2)oc2ccc(-c3cc(C(=O)NC(C)(C)c4ccccc4)ccc3OC)cc12 [drawing 608]	–	–	–	–	IC50 ([1]; untitled table after Table 1b): 0.00965 µM; EC50 (HCV replicon cells; [2]): 0.00304 µM
CNC(=O)c1c(-c2ccc(F)cc2)oc2ccc(-c3cc(C(=O)NC4(c5ncc(C)o5)CC4)ccc3C)cc12	–	–	–	–	IC50 ([1]; Table 1d (class symbols)): < 0.02 µM; EC50 (HCV replicon cells; 24 h, Table 1d (class symbols)): 0.001 to 0.25 µM
CCOc1cc(C(=O)NCC(C)C)cc(-c2ccc3oc(-c4ccc(F)cc4)c(C(=O)NC)c3c2)c1	> 0.5 µM	1 to 10 µM	–	–	–
CNC(=O)c1c(-c2ccc(F)cc2)oc2ccc(-c3cccc(C(=O)NC4(c5ccccc5)CC4)c3OC)cc12	> 10 µM	> 10 µM	–	–	–
CNC(=O)c1c(-c2ccc(F)cc2)oc2cc(N)c(-c3cccc(C(=O)NCC(C)C)c3)cc12	< 0.25 µM	< 0.25 µM	–	–	–
C#CCOc1cc(C)c(-c2ccc3oc(-c4ccc(F)cc4)c(C(=O)NC)c3c2)cc1C(=O)NC1(c2ccccn2)CC1	–	–	–	–	IC50 ([1]; Table 1d (class symbols)): 0.001 to 0.25 µM; EC50 (HCV replicon cells; 24 h, Table 1d (class symbols)): 0.001 to 0.25 µM
CNC(=O)c1c(-c2ccc(F)cc2)oc2ccc(-c3cccc(C(=O)NC(C)(C)C(=O)Nc4nccnn4)c3)cc12	< 0.25 µM	< 0.25 µM	–	–	–
CNC(=O)c1c(-c2ccc(F)cc2)oc2ccc(-c3ccc(Cl)c(C(=O)NC4(c5ccccn5)CC4)c3)cc12	0.25 to 1 µM	> 10 µM	–	–	–
CNC(=O)c1c(-c2ccc(F)cc2)oc2ccc(-c3cc(C(=O)NC4(c5nnc(C(N)=O)[nH]5)CC4)ccc3C)cc12	< 0.25 µM	0.25 to 1 µM	–	–	–
CNC(=O)c1c(-c2ccc(F)cc2)oc2ccc(-c3cccc(C(=O)Nc4cncc(C(=O)O)c4)c3)cc12	–	–	0.25 to 1 µM	> 10 µM	–
CCCOc1cc(C(=O)NCC(C)C)cc(-c2ccc3oc(-c4ccc(F)cc4)c(C(=O)NC)c3c2)c1	> 10 µM	1 to 10 µM	–	–	–
CNC(=O)c1c(-c2ccc(F)cc2)oc2ccc(-c3cc(C(=O)NC4(c5ncccn5)CC4)ccc3C)c(F)c12 [drawing 587]	< 0.25 µM	< 0.25 µM	–	–	–
CN1CN(C)c2c(-c3cccc(C(N)=O)c3)ccc3oc(-c4ccc(F)cc4)c(c23)C1=O [drawing 619]	–	–	–	–	IC50 ([1]; untitled table after Table 1b): > 12.5 µM; EC50 (HCV replicon cells; [2]): 13.7 µM
CNC(=O)c1c(-c2ccc(F)cc2)oc2ccc(-c3cc(OCc4ccco4)cc(C(=O)NCC(C)C)c3)cc12	1 to 10 µM	1 to 10 µM	–	–	–
CNC(=O)c1c(-c2ccc(F)cc2)oc2ccc(-c3cc(OCC4CCC4)cc(C(=O)NCC(C)C)c3)cc12	> 10 µM	1 to 10 µM	–	–	–
CNC(=O)c1c(-c2ccc(F)cc2)oc2ccc(-c3cc(C(=O)NCC(C)C)ccc3OCc3cn(C)cn3)cc12	1 to 10 µM	0.25 to 1 µM	–	–	–
